Values of other authors as cited in paper PMC2885594 (Current Chemical Genomics, 2010).

System: TPH1
Conditions: ref [30]

N[C@@H](Cc1c[nH]c2ccc(O)cc12)C(=O)O [5-HTP]
mechanism of inhibition versus phenylalanine: competitive | mechanism of inhibition versus pterin: uncompetitive
